According to ChEMBL document CHEMBL5107958, “Phosphoramidate Prodrugs Continue to Deliver, The Journey of Remdesivir (GS-5734) from RSV to SARS-CoV-2” (ACS Med Chem Lett, 2022):

What was measured:
[1] = system: SARS-CoV-2; test: Potency index, ratio of EC50 of GS-441524 to EC50 of test compound for antiviral activity against SARS-CoV-2 infected in HAEC cells assessed as reduction in viral replication incubated for 1.5 hrs followed by virus removal upto 24 hrs and subsequent replacement of medium containing compound by RT-qPCR analysis; assay type: functional, Severe acute respiratory syndrome coronavirus 2; details: time <= 25.5 hrs
[2] = system: SARS-CoV-2; test: Antiviral activity against SARS-CoV-2 infected in HAEC cells assessed as reduction in viral replication incubated for 1.5 hrs followed by virus removal upto 24 hrs and subsequent replacement of medium containing compound by RT-qPCR analysis; assay type: functional, organism-based; details: Severe acute respiratory syndrome coronavirus 2, HAEC

SMILES: CCC(CC)OC(=O)[C@H](C)N[P@](=O)(OC[C@H]1O[C@@](C#N)(c2ccc3c(N)ncnn23)[C@H](O)[C@@H]1O)Oc1ccccc1
- Ratio [1]: 11
- EC50 [2]: 48 nM

SMILES: N#C[C@@]1(c2ccc3c(N)ncnn23)O[C@H](CO)[C@@H](O)[C@H]1O [GS-441524]
- EC50 [2]: 510 nM
